One may read the Kd as the concentration at which binding is half-saturated.

The values below come from patent US20130330358A1, “CRYSTAL STRUCTURE AND PEPTIDE INHIBITORS OF HAUSP DEUBIQUITINASE” (priority 2011, published 2013).

The target in assay [1] is T1, HAUSP TRAF domain HAUSP^62-205 (Homo sapiens, UniProt Q93009).
T1 construct: HAUSP^62-205, and HAUSP^62-560 were fused to a hexahistidine-tag2 and expressed in E. coli BL21 (DE3) RIPL cells; hexahistidine (cleaved yes); made in house; host or cells: E. coli BL21 (DE3) RIPL
The assay is described as follows: biochemical. Particulars: ITC, 20° C.; read-out: Kd. The assay is classed as binding. On the procedure:
FIG. 5. Typical isothermal titration calorimetric measurements of the interactions between the HAUSP TRAF domain and the vIRF4 protein derivatives or other peptides. Purified proteins and synthesized peptides were reconstituted in 150 mM NaCl and 10 mM HEPES (pH 7.0). The calorimetric assays were performed using a VPITC system. All experiments were carried out with a stirring speed of 300 rpm at 20° C., and the thermal power was recorded every 10 s. Data were analyzed using the ORIGIN software package (version 7.0). […] Each titration against the HAUSP TRAF domain is indicated in each panel.
Purified proteins and synthesized peptides (Peptron Inc., Deajeon, Korea) were reconstituted in 150 mM NaCl and 10 mM HEPES (pH 7.0). The calorimetric assays were performed using a VP-ITC system (MicroCal Inc., Northampton, Mass.). Samples were degassed by vacuum aspiration for 15 min prior to loading. All experiments were carried out with a stirring speed of 300 rpm at 20° C., and the thermal power was recorded every 10 s. Data were analyzed using the ORIGIN software package (version 7.0) supplied with the instrument. […]

Assay [2] addresses T1, HAUSP TRAF domain HAUSP^62-205. The assay is described as follows: Size exclusion chromatography, complex formation in 5-fold excess of MDM2^137-152. It is filed as binding. Particulars: in the presence of a 5-fold molar excess of MDM2 peptide. In general terms: SEC sorts molecules by how far they enter the pores of the column.
The next assay deals with T2, USP8 (Homo sapiens, UniProt P40818).
T2 sequence (P40818 1-1118): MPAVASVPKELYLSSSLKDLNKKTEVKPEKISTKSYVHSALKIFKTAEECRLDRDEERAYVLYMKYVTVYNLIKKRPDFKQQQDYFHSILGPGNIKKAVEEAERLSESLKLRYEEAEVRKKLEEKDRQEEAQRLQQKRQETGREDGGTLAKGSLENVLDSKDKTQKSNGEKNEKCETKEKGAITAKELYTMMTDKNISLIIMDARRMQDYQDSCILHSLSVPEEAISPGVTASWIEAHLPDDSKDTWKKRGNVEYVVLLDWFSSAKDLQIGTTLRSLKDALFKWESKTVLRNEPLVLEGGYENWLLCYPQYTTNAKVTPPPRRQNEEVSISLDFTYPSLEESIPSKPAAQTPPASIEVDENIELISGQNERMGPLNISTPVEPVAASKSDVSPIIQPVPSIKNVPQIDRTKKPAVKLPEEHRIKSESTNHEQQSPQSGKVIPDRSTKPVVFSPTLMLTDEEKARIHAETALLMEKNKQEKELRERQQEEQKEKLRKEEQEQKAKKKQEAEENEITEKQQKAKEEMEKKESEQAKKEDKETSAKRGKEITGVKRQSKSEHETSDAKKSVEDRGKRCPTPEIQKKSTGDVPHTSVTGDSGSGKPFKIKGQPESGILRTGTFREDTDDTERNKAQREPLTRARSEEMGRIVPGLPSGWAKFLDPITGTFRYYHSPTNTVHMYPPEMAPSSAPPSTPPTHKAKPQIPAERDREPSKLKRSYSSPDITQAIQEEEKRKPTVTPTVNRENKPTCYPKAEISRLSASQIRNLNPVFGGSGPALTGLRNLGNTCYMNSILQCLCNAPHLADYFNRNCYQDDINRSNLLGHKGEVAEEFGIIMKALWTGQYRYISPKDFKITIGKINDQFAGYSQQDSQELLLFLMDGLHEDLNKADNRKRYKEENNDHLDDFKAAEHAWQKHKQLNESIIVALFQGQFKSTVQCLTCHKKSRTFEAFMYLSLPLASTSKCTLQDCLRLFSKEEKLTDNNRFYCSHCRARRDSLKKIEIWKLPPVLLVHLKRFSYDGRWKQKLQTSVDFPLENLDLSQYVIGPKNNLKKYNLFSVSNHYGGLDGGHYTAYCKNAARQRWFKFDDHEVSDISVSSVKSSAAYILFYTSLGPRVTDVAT
It is filed as biochemical. The conditions noted are these: 0.25 μM purified USP8 pre-mixed with peptide 5 min.

Assay [3] relates to SJSA-1 (MDM2 amplification). The assay is described as follows: WST-1 cell growth assay, SJSA-1. It is filed as cell-based, human. The conditions noted are these: SJSA-1, 100 μM, compared with LnCap cells.
Assay [4] has as its system MCF7 (MDMX amplification). The assay can be described thus: WST-1 cell growth assay, MCF7. It is filed as cell-based, human. The conditions noted are these: MCF7, 100 μM, compared with LnCap cells. For orientation: Tetrazolium assays rely on reduction of a dye to a coloured formazan, in cell work by metabolically active cells.
The subject of assay [5] is p53 and its transcriptional targets p21 and MDM2. The assay is described as follows: Immunoblot of p53, MDM2, p21 and HAUSP levels in PEL cells. The assay is classed as cell-based, human. Particulars: FIG. 3d. From the text:
The results were quantified as mean±s.d. of the combined results from three independent experiments; Data are mean±s. e. m.; n=200-300 cells from three independent experiments. *P<0.01 and **P<0.001. A Beckman Coulter Z2 Particle Count and size analyzer (BC Z2 CS analyzer) and trypan blue staining were used to determine cell death and for cell growth analysis. […] BrdU incorporation during the S phase is quantified as percentage of stained cells. […] Data are culled from 3 independent experiments. […] Apoptosis in VG1 cells was assessed at 48 h after treatment with 10 μM Nutlin-3a or 100 μM of each peptide by Annexin V/PI staining and measured by flow cytometry analysis. […] Numbers indicate the percentage of cells in each quadrant. […] VG1 and BJAB cells were treated with the same dose as used in (b) and (c) for 6 h and aliquots of cell lysates containing […] of protein were analyzed by IB with the indicated antibody. […] Tumors were measured by in vivo bioluminescence imaging. […] The results were quantified as mean±s.d. of the combined results from three independent experiments; Data are mean±s. e. m.; n=200-300 cells from three independent experiments. *P<0.05 and **P<0.01. […]

The target of assay [6] is T3, HAUSP (Homo sapiens, UniProt Q93009). The assay can be described thus: In vitro DUB assay, purified HAUSP with ubiquitinated MDM2 as substrate. Particulars: HAUSP preincubated with increasing amounts of peptide (FIG. 2f).
Assay [7] has as its target T3, HAUSP. Particulars: time course, K48-Ub3-7 chains, 37° C. (FIG. 2e).

T3 sequence (Q93009 whole entry): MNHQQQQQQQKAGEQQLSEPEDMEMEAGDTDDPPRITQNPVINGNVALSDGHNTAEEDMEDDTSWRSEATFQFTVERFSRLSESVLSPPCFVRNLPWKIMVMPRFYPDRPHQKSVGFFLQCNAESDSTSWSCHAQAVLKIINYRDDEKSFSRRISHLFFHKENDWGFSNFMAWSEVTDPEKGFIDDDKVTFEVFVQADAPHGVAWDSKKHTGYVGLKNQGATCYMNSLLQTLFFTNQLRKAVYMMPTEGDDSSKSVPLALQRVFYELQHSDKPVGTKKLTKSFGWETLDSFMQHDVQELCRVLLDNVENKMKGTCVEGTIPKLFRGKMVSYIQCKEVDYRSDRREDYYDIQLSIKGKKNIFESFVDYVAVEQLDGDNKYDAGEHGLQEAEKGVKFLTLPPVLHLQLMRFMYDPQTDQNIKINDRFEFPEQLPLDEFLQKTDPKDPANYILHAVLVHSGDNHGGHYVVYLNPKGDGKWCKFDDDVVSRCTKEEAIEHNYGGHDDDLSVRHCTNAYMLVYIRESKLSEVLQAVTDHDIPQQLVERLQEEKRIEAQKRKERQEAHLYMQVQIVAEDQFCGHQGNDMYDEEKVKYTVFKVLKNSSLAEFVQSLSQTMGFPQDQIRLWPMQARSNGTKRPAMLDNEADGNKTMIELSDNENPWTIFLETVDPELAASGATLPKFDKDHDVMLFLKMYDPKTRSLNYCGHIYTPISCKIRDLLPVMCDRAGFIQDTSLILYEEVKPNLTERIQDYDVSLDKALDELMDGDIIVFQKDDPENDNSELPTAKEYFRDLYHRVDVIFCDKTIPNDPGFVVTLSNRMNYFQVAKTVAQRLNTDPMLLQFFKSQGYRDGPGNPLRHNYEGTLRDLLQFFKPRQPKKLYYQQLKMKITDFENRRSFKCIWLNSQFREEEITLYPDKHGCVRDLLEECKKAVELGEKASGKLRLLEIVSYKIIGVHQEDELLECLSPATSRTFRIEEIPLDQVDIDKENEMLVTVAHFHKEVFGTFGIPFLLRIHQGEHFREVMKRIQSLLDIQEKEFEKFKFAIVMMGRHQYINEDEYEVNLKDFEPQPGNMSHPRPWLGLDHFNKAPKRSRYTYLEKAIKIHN
T1 sequence (Q93009 62-205): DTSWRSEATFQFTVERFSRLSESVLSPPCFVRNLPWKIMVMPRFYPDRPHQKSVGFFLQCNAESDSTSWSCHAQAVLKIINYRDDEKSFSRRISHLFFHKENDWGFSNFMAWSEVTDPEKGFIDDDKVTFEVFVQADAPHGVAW

On to `C[C@H](NC(=O)[C@@H]1CCCN1C(=O)CNC(=O)[C@H](CCC(N)=O)NC(=O)[C@@H](N)CCC(=O)O)C(=O)N[C@@H](CC(=O)O)C(=O)N[C@@H](CC(=O)O)C(=O)N1CCC[C@H]1C(=O)NCC(=O)N[C@@H](CCC(=O)O)C(=O)NCC(=O)N1CCC[C@H]1C(=O)N[C@@H](CO)C(=O)N[C@H](C(=O)NCC(=O)O)[C@@H](C)O` [EBNA1^435-449, reference compound], for which the Kd in assay [1] is 480 ± 40 nM.
As to `CC[C@H](C)[C@H](NC(=O)[C@H](Cc1c[nH]c2ccccc12)NC(=O)[C@@H](NC(=O)[C@@H](N)CO)C(C)C)C(=O)N1CCC[C@H]1C(=O)N[C@H](C(=O)N[C@@H](CC(N)=O)C(=O)N[C@@H](CCC(=O)O)C(=O)NCC(=O)N[C@@H](C)C(=O)N[C@@H](CO)C(=O)N[C@H](C(=O)N[C@@H](CO)C(=O)NCC(=O)N[C@@H](CCSC)C(=O)O)[C@@H](C)O)C(C)C` [vIRF4^202-216], the “complex formation with the HAUSP TRAF domain” value in assay [2] is listed as “formed a stable complex”. For the same molecule, the “USP8 DUB activity” value at USP8 is “neither vif1 peptide nor vif2 peptide was capable of inhibiting USP8 DUB activity”. Also, the cell growth inhibition entry in assay [3] and in assay [4] was “did not show as robust a susceptibility” throughout. Also, in assay [5], the HAUSP levels result is reported as “Neither vif1 nor vif2 peptide treatment altered HAUSP levels”. On HAUSP [6], the “HAUSP DUB activity against ubiquitinated MDM2” value is on record as “efficiently blocked HAUSP DUB activity”. Besides, at HAUSP [7], the “HAUSP DUB activity, comparative kinetic analysis” value was “weakly attenuated HAUSP DUB activity”.
TRQVTQASSFTWRVPG [vif2]: on USP8, the “USP8 DUB activity” value was “neither vif1 peptide nor vif2 peptide was capable of inhibiting USP8 DUB activity”. Besides, the cell growth inhibition entry in assay [3] and in assay [4] was “did not show as robust a susceptibility” in each case. For the same molecule, in assay [5], the HAUSP levels entry is “Neither vif1 nor vif2 peptide treatment altered HAUSP levels”. Further, the “HAUSP DUB activity against ubiquitinated MDM2” value on HAUSP [6] is listed as “efficiently blocked HAUSP enzymatic activity”. In addition, the “HAUSP DUB activity, comparative kinetic analysis” value on HAUSP [7] is “completely suppressed HAUSP DUB activity”.
